Here are results for 18 molecules from patent US20200392150A1, “Diaryl-B-Lactam Compound and Preparation Method and Pharmaceutical Use Thereof” (Fudan University, priority 2016, published 2020).

By IC50 is commonly meant the concentration that inhibits the measured activity by half.

What all share (experiment): In vitro cell growth inhibition assay (MTT)
What all share (type): cell-based, human

For one experiment, the system named is A2780. As to conditions: A2780 human ovarian cancer cell line, 48 h, MTT; read-out: IC50 A2780. The procedure: (§1) 5000 tumor cells per well were seeded into 96-well plate and allowed to adhere overnight. Cells were treated with various concentrations of tested compounds or DMSO (0.2%, as negative control) for 48 h. Then, the medium along with tested compounds or DMSO was discarded and […] per well MTT containing medium (0.5 mg/mL) was added. After incubation at 37° C. for 4 h, the MTT-containing medium was replaced by DMSO (150 μL per well) to dissolve the formazan crystals. Absorbance of the resulting solution was measured by microplate reader (Biotech ELx800) at 540 nm wavelength. Growth inhibition rates were calculated with the absorbance. Half maximal inhibitory concentration (IC50) of each compound was calculated using GraphPad Prism, version 6.0.

The test system of the next experiment is Hela. The conditions noted are these: Hela human cervical cancer cell line, 48 h, MTT; read-out: IC50 Hela. The procedure: as §1
In the next experiment the test system is MDA-MB-231. As to conditions: MDA-MB-231 human breast cancer cell line, 48 h, MTT; read-out: IC50 MDA-MB-231. The procedure: as §1
The next experiment relates to SKOV3. The conditions noted are these: SK-OV-3; SKOV-3 human ovarian cancer cell line, 48 h, MTT; read-out: IC50 SKOV3. The procedure: as §1

As for `COc1ccc([C@H]2/C(=C/c3ccc(C(C)(C)C)cc3)C(=O)N2c2cc(OC)c(OC)c(OC)c2)cc1O` [Compound 58, (S,Z)-3-(4-(tert-butyl)benzylidene)-4-(3-hydroxy-4-methoxyphenyl)-1-(3,4,5-trimethoxyphenyl)azetidin-2-one], the IC50 in the experiment with A2780, in the experiment with Hela, in the experiment with MDA-MB-231 and with SKOV3 was > 20000 nM each time.
Consider `COc1ccc([C@H]2[C@@H](CC[Si](C)(C)C)C(=O)N2c2cc(OC)c(OC)c(OC)c2)cc1O` [Compound 59, (3R,4R)-4-(3-hydroxy-4-methoxyphenyl)-1-(3,4,5-trimethoxyphenyl)-3-(2-(trimethylsilyl)ethyl)azetidin-2-one], for which the IC50 in the experiment on A2780 is 7540 nM; with Hela it was 9140 nM; in the experiment on MDA-MB-231 it was 6440 nM; in the experiment with SKOV3, 5630 nM.
As for `COc1ccc([C@H]2[C@H](n3cc(CO)nn3)C(=O)N2c2cc(OC)c(OC)c(OC)c2)cc1O` [Compound 61, (3S,4S)-4-(3-hydroxy-4-methoxyphenyl)-3-(4-(hydroxymethyl)-1H-1,2,3-triazol-1-yl)-1-(3,4,5-trimethoxyphenyl)azetidin-2-one], the IC50 in the experiment on A2780 is 15 nM; in the experiment on Hela, 33 nM; in the experiment on MDA-MB-231 it was 28 nM; with SKOV3 it was 83 nM.
For the molecule `COc1ccc([C@H]2[C@@H](CN(C)C)C(=O)N2c2cc(OC)c(OC)c(OC)c2)cc1O` [Compound 62, (3R,4R)-3-((dimethylamino)methyl)-4-(3-hydroxy-4-methoxyphenyl)-1-(3,4,5-trimethoxyphenyl)azetidin-2-one], the IC50 in the experiment with A2780 is 7720 nM; in the experiment with Hela it was > 20000 nM; in the experiment with MDA-MB-231, > 20000 nM; with SKOV3, > 20000 nM.
Turning to `COc1ccc([C@H]2[C@@H](CNCc3ccccc3)C(=O)N2c2cc(OC)c(OC)c(OC)c2)cc1O` [Compound 63, (3R,4R)-3-((benzylamino)methyl)-4-(3-hydroxy-4-methoxyphenyl)-1-(3,4,5-trimethoxyphenyl)azetidin-2-one], the IC50 in the experiment with A2780 stood at 1020 nM; with Hela, 2270 nM; in the experiment on MDA-MB-231, 1790 nM; with SKOV3, 1670 nM.
Consider `COc1ccc([C@H]2[C@@H](OC(=O)CCC(=O)O)C(=O)N2c2cc(OC)c(OC)c(OC)c2)cc1O` [Compound 64, 4-(((2S,3R)-2-(3-hydroxy-4-methoxyphenyl)-4-oxo-1-(3,4,5-trimethoxyphenyl)azetidin-3-yl)oxy)-4-oxobutanoic acid], for which the IC50 in the experiment on A2780 is 79 nM; in the experiment on Hela, 178 nM; in the experiment with MDA-MB-231, 102 nM; in the experiment on SKOV3, 210 nM.
On to `CCOC(=O)CO[C@H]1C(=O)N(c2cc(OC)c(OC)c(OC)c2)[C@H]1c1ccc(OC)c(O)c1` [Compound 65, ethyl 2-(((2S,3R)-2-(3-hydroxy-4-methoxyphenyl)-4-oxo-1-(3,4,5-trimethoxyphenyl)azetidin-3-yl)oxy)acetate], for which the IC50 came to 423 nM in the experiment with A2780, 669 nM in the experiment on Hela, 672 nM in the experiment on MDA-MB-231 and 721 nM in the experiment on SKOV3.
Take `COc1ccc([C@H]2[C@H](Br)C(=O)N2c2cc(OC)c(OC)c(OC)c2)cc1O` [Compound 66, (3S,4S)-3-bromo-4-(3-hydroxy-4-methoxyphenyl)-1-(3,4,5-trimethoxyphenyl)azetidin-2-one]: the IC50 in the experiment on A2780 turned out to be 8 nM; in the experiment with Hela, 13 nM; with MDA-MB-231 it was 10 nM; with SKOV3, 9 nM.
Take `COc1ccc([C@H]2CC(=O)N2c2cc(OC)c(OC)c(OC)c2)cc1O` [Compound 67, (R)-4-(3-hydroxy-4-methoxyphenyl)-1-(3,4,5-trimethoxyphenyl)azetidin-2-one]: the IC50 with A2780 turned out to be 22 nM; in the experiment on Hela, 30 nM; with MDA-MB-231, 28 nM; with SKOV3, 24 nM.
In the case of `COc1ccc([C@H]2[C@H](NC(C)=O)C(=O)N2c2cc(OC)c(OC)c(OC)c2)cc1O` [Compound 77, N-((2S,3S)-2-(3-hydroxy-4-methoxyphenyl)-4-oxo-1-(3,4,5-trimethoxyphenyl)azetidin-3-yl)acetamide], the IC50 in the experiment on A2780 was found to be 33 nM; with Hela it was 35 nM; in the experiment on MDA-MB-231, 47 nM; in the experiment with SKOV3, 32 nM.
With `COc1ccc([C@H]2[C@H](NC(=O)c3ccccc3)C(=O)N2c2cc(OC)c(OC)c(OC)c2)cc1O` [Compound 78, N-((2S,3S)-2-(3-hydroxy-4-methoxyphenyl)-4-oxo-1-(3,4,5-trimethoxyphenyl)azetidin-3-yl)benzamide], the IC50 is 27 nM in the experiment with A2780, 24 nM with Hela, 47 nM in the experiment with MDA-MB-231 and 45 nM with SKOV3.
The matching figures for `COc1ccc([C@H]2[C@H](NS(C)(=O)=O)C(=O)N2c2cc(OC)c(OC)c(OC)c2)cc1O` [Compound 79, N-((2S,3S)-2-(3-hydroxy-4-methoxyphenyl)-4-oxo-1-(3,4,5-trimethoxyphenyl)azetidin-3-yl)methanesulfonamide]: 164 nM, 192 nM, 254 nM and 231 nM.
In the case of `COc1ccc([C@@H]2N(c3cc(OC)c(OC)c(OC)c3)C(=O)[C@]2(O)CO)cc1O` [Compound 80, (3R,4S)-3-hydroxy-4-(3-hydroxy-4-methoxyphenyl)-3-(hydroxymethyl)-1-(3,4,5-trimethoxyphenyl)azetidin-2-one], the IC50 came out at 1770 nM in the experiment on A2780, 3420 nM in the experiment with Hela, 4470 nM with MDA-MB-231 and 3000 nM in the experiment with SKOV3.
As for `COC[C@@]1(OC)C(=O)N(c2cc(OC)c(OC)c(OC)c2)[C@H]1c1ccc(OC)c(O)c1` [Compound 81, (3R,4S)-4-(3-hydroxy-4-methoxyphenyl)-3-methoxy-3-(methoxymethyl)-1-(3,4,5-trimethoxyphenyl)azetidin-2-one], the IC50 in the experiment with A2780 worked out at 1750 nM; with Hela, 2560 nM; in the experiment on MDA-MB-231, 2650 nM; in the experiment on SKOV3 it was 2470 nM.
On the same counts, the results for `C=C1C(=O)N(c2cc(OC)c(OC)c(OC)c2)[C@H]1c1cccc(O)c1` [Compound 85, (S)-4-(3-hydroxyphenyl)-3-methylene-1-(3,4,5-trimethoxyphenyl)azetidin-2-one] are 10500 nM, 15000 nM, 6640 nM and 14500 nM.
For the molecule `C=C1C(=O)N(c2cc(OC)c(OC)c(OC)c2)[C@H]1c1cccc(OC)c1` [Compound 86, (S)-4-(3-methoxyphenyl)-3-methylene-1-(3,4,5-trimethoxyphenyl)azetidin-2-one], the IC50 in the experiment with A2780 stood at 2290 nM; in the experiment with Hela, 12300 nM; with MDA-MB-231, 6320 nM; in the experiment with SKOV3, 8180 nM.
For the molecule `C=C1C(=O)N(c2cc(OC)c(OC)c(OC)c2)[C@H]1c1ccc(C)cc1` [Compound 87, (S)-3-methylene-4-(p-tolyl)-1-(3,4,5-trimethoxyphenyl)azetidin-2-one], the IC50 with A2780 was 127 nM; in the experiment on Hela, 209 nM; in the experiment on MDA-MB-231, 193 nM; in the experiment with SKOV3 it was 265 nM.
On to `C=C1C(=O)N(c2cc(OC)c(OC)c(OC)c2)[C@H]1c1ccc(C(C)C)cc1` [Compound 88, (S)-4-(4-isopropylphenyl)-3-methylene-1-(3,4,5-trimethoxyphenyl)azetidin-2-one], for which the IC50 in the experiment with A2780 was 2120 nM; in the experiment on Hela, 2210 nM; in the experiment with MDA-MB-231, 2550 nM; with SKOV3, 2470 nM.
